In general, IC50 refers to the concentration that gives 50% inhibition.

The target in the test is Presenilin-1 (Homo sapiens, UniProt P49768). Description: Inhibition of gamma-secretase in cell-free human HeLa membrane assessed as amyloid beta-42 production using APP as substrate.

For the molecule `CC(C)C[C@H](NC(=O)[C@H](Cc1ccccc1)C[C@@H](O)[C@H](Cc1ccccc1)NC(=O)OC(C)(C)C)C(=O)N[C@@H](Cc1ccc(C(=O)c2ccccc2)cc1)C(=O)NCCCCCNC(=O)CCCC[C@@H]1SC[C@@H]2NC(=O)N[C@@H]21`, the IC50 amounted to 0.3 nM.

(Values after BindingDB's records for doi:10.1016/j.bmcl.2012.02.027 (Memorial Sloan-Kettering Cancer Center, 2012).)
